Experimental data taken from patent US9670259B2, “Method of inhibiting angiogenesis using inhibitors of G-protein-coupled receptor kinase interacting protein-1 (GIT1)” (University of Rochester, priority 2013, dated 2017).

B1: SHD-Flag: flag-tagged SHD domain of GIT1 (residues 250-420 of SEQ ID NO: 1) cloned into a lentivirus vector (protein, listed as Homo sapiens)
chain: QMADSLDLSELAKAAKKKLQALSNRLFEELAMDVYDEVDRRENDAVWLATQNHSTLVTERSAVPFLPVNPEYSATRNQGRQKLARFNAREFATLIIDILSEAKRRQQGKSLSSPTDNLELSLRSQSDLDDQHDYDSVASDEDTDQEPLRSTGATRSNRARSMDSSDLSDGA
modifications: Flag tag; lentivirus vector

Experiments:
Type in all cases: cell-based, human
[1] = tested on: Dll4; test: Dll4 mRNA (qRT-PCR) and protein (western blot) after GIT1 depletion with siRNA in HUVECs; conditions: siRNA 48 h, compared to control siRNA
Method: (§1) Human umbilical vein endothelial cells (HUVECs) were isolated and grown in Medium 200 with low serum growth supplement (Cascade Biologics, Inc., Portland, Oreg.) as described previously (Carmeliet et al., Nature 436:193 (2005), which is hereby incorporated by reference in its entirety). GIT1 siRNA ([…]) (SEQ ID NO: 21) and control non-silencing siRNA([…]) (SEQ ID NO: 22) were designed and synthesized (Ambion) and Dll4 siRNA was purchased (Santa Cruz). The siRNA were transfected at 100 nM for 48 h as previously described by our laboratory (Yin et al., Mol. Cell Biol., 24:875 (2004), which is hereby incorporated by reference in its entirety). […]
(§2) For immunoblotting, cells were lysed in RIPA buffer (150 mM NaCl, 1% Nonidet P-40, […], 0.1% SDS, 50 mM Tris-HCl, pH 8.0). Protein concentrations in the lysates were determined. […] After incubating with fluorescence-conjugated secondary antibodies, immunoreactive proteins were visualized by an Odyssey infrared imaging system (LI-COR Biotechnology, Nebraska). […]
(§3) Total RNA from retinas and lungs of GIT1 WT and KO mice or HUVECs was obtained using TRIzol reagent (Invitrogen) according to the manufacturer's protocol. […] Target genes mRNA expression and mitochondrial DNA content were determined by qRT-PCR (Applied Biosystems). […]

[2] = tested on: Hey1; test: Hey1 mRNA (qRT-PCR) and protein (western blot) after GIT1 depletion with siRNA in HUVECs; conditions: compared to control siRNA
Method: as §1, §2, §3

[3] = tested on: Notch1; test: Notch1 expression and cleavage (N1-ICD) after GIT1 depletion with siRNA in HUVECs; conditions: siRNA treated
Method: Human umbilical vein endothelial cells (HUVECs) were isolated and grown in Medium 200 with low serum growth supplement (Cascade Biologics, Inc., Portland, Oreg.) as described previously (Carmeliet et al., Nature 436:193 (2005), which is hereby incorporated by reference in its entirety). GIT1 siRNA ([…]) (SEQ ID NO: 21) and control non-silencing siRNA([…]) (SEQ ID NO: 22) were designed and synthesized (Ambion) and Dll4 siRNA was purchased (Santa Cruz). The siRNA were transfected at 100 nM for 48 h as previously described by our laboratory (Yin et al., Mol. Cell Biol., 24:875 (2004), which is hereby incorporated by reference in its entirety). HEK293 cells were cultured in Dulbecco's modified Eagle's medium supplemented with 10% fetal bovine serum (FBS), penicillin, and streptomycin at 37° C. in 5% CO2. HEK293T cells were transfected by Lipofectamine/plus (Invitrogen).
For immunoblotting, cells were lysed in RIPA buffer (150 mM NaCl, 1% Nonidet P-40, […], 0.1% SDS, 50 mM Tris-HCl, pH 8.0). Protein concentrations in the lysates were determined. The protein samples were separated by SDS-PAGE, transferred to nitrocellulose membranes, and incubated with appropriate primary antibodies. After incubating with fluorescence-conjugated secondary antibodies, immunoreactive proteins were visualized by an Odyssey infrared imaging system (LI-COR Biotechnology, Nebraska). […]

[4] = tested on: PLCγ; test: VEGF induced PLCγ activation in HUVEC infected with SHD-Flag lentivirus; conditions: lentivirus overexpression, VEGF 10 ng/mL
Method: (§4) In an effort to identify the potential GIT1 inhibitor peptides, a flag-tagged SHD domain of GIT1 (SHD-Flag) was cloned into a lentivirus vector.
(§5) HUVECs were seeded on 6 well plate at 80% confluence. The next day, cells were infected with control and SHD-Flag containing Lentivirus with Polybrene. After 1 day, infection media was changed with fresh complete M200 media (containing 5% FBS+1% Penicillin-Streptomycin and 2% LSGS). After 48 hours, cells were serum starved with serum free M200 media for 1 hour and stimulated with VEGF (10 ng/mL) for different time points ranging from 0 to 30 minutes. Next cells were lysed and used for western blot analysis to measure PLCγ and ERK1/2 activation. […] No effect of SHD overexpression on VEGF induced ERK1/2 activation was observed. Flag tagged SHD expression in HUVECs were confirmed by detecting Flag in the lysate

[5] = tested on: ERK1/2; test: VEGF induced ERK1/2 activation in HUVEC infected with SHD-Flag lentivirus; conditions: lentivirus overexpression, VEGF 10 ng/mL
Method: as §4, §5

[6] = tested on: HUVEC; test: HUVEC tube formation on matrigel after SHD overexpression; conditions: HUVECs with VEGF on growth factor reduced matrigel, 16 hours, compared to control
Method: In addition to PLCγ signaling, the effect of SHD overexpression on HUVEC tube formation in vitro was also assessed. Endothelial cells reorganize themselves in a 3D matrix like matrigel and form tubes which is an index of in vitro angiogenesis. After 48 hours, cells were cultured at a constant number (10^4 cells/well) with VEGF on growth factor reduced matrigel (30 uL) coated 96 well plate and incubated for 16 hours.

| Molecule | increase of Dll4 mRNA expression [1] [fold] | increase of Dll4 protein expression [1] [fold] | increase of Hey1 mRNA expression [2] [fold] | increase of Hey1 protein expression [2] [fold] | Notch1 expression [3] | enhancement of expression of N1-ICD ([3]; normalized to total Notch1) [fold] | VEGF induced PLCγ activation [4] | VEGF induced ERK1/2 activation [5] | formation of tube-like structures [6] |
| --- | --- | --- | --- | --- | --- | --- | --- | --- | --- |
| GIT1 siRNA: siRNA AAGCTGCCAAGAAGAAGCTAC (SEQ ID NO: 21), synthesized (Ambion) (listed as DNA, chemistry not given here) | 3.2±0.6 | 6.3±0.3 | 5.2±0.57 | 3.0±0.3 | no change | 1.7±0.4 | – | – | – |
| B1 | – | – | – | – | – | – | blocked VEGF induced PLCγ activation | No effect | inhibited the formation of tube-like structures |
